Data taken from US20080031922A1, “Delivery System” (priority 2004, published 2008).
“And” between values parts separate entries of the source, which are not always exact repeats. Equal values may be shown once.

What was measured:
Assay type in all cases: physicochemical
[1] = in vitro release rate of FAP from intrauterine system (IUS)
Description: The release rate of the therapeutically active substance from the device was measured in vitro as follows:
The devices (implant, intravaginal ring, intracervical or intrauterine system) were attached into a stainless steel holder in vertical position and the holders with the devices were placed into glass bottles containing 75 ml of a dissolution medium, a 1 wt-% hydroxypropyl cyclodextrin solution. The glass bottles were shaked in shaking waterbath 100 rpm at 37° C. The dissolution medium was withdrawn and replaced by a fresh dissolution medium at predetermined time intervals, and the amount of the released substance was analysed by using standard HPLC methods. The concentration of the dissolution medium and the moment of change (withdrawal and replacement) of medium were selected, so that sink-conditions were maintained during the test.
HPBCD modification was tested with a fluorinated antiprogestin derivative (FAP, 11-(4-Acetylphenyl)-17-hydroxy-17-(1,1,2,2,2-pentafluoroethyl)estra-4,9-dien-3-one) in intrauterine (IUS) system. Two samples of 1 and 4 wt-% of HPBCD content in the membrane were prepared by combining with swelling separately extruded membrane and core elastomer rods over the IUS T-frame. The swelling agent was isopropanol.
The content of the therapeutically active agent in the core elastomer was 65 wt-% and the outer diameter of the core was 2.88-2.92 mm and length 21.0-21.1 mm. The membrane was 3 mm longer than the core and the thickness of the membrane was 0,25 mm. FIG. 3 presents the release rate of the therapeutically active agent (μg/d, shown in the y-axis) from two FAP containing intrauterine systems as a function of time (days, shown in the x-axis) compared to a reference sample. Indeed, the squares represent the results for the reference sample, the losanges illustrate the results for the cyclodextrin modified membrane, when the amount of cyclodextrin was 1 wt-% and the triangles represent the results for the cyclodextrin modified membrane, when the amount of cyclodextrin was 4 wt-%.

[2] = in vitro release rate of danazol from intravaginal ring (IVR)
Description: The release rate of the therapeutically active substance from the device was measured in vitro as follows: The devices (implant, intravaginal ring, intracervical or intrauterine system) were attached into a stainless steel holder in vertical position and the holders with the devices were placed into glass bottles containing 75 ml of a dissolution medium, a 1 wt-% hydroxypropyl cyclodextrin solution. The glass bottles were shaked in shaking waterbath 100 rpm at 37° C. The dissolution medium was withdrawn and replaced by a fresh dissolution medium at predetermined time intervals, and the amount of the released substance was analysed by using standard HPLC methods. The concentration of the dissolution medium and the moment of change (withdrawal and replacement) of medium were selected, so that sink-conditions were maintained during the test. […] Hydroxypropyl β-cyclodextrin (HPBCD) was used as the regulating agent. Three different implants with different hydroxypropyl β-cyclodextrin (HPBCD) contents in the membrane were made and the results were compared to corresponding implants without any added HPBCD. All the implants consisted of a core containing the therapeutically active agent and a release rate-controlling membrane encasing the core. The core and the membrane silicone elastomer rods were manufactured by extrusion and the implant compositions were made by swelling the membrane in propanol, as explained above. The content of the therapeutically active agent was 20 wt-% (weight percent) in the core and the micronized hormone was mixed into the elastomer with a mixer before extrusion. The diameters of the IVR rings were ca. 50-55 mm and the periphery of the cross section ca. 9-10 mm, the thicknesses of the membranes were 0.25, 0.35 and 0.7 mm and the HPBCD contents of the membrane were 0.17 wt-%, 1.7 wt-% and 7.7 wt-% respectively. The results are shown in FIG. 1 for the daily in vitro release rate per core area (μg/(d*mm^2), shown as the y axis and days shown in the x-axis), wherein the empty triangles represent the results for 0.17 wt-% HPBCD-content in the membrane with 0.7 mm wall thickness. The empty squares illustrate the results for 1.7 wt-% HPBCD-content in the membrane with 0.35 mm wall thickness and the stars show the results for 7.7 wt-% HPBCD-content in the membrane with 0.25 mm wall thickness. The full triangles represent the comparative results for a membrane with wall thickness of 0.3 mm and the full squares illustrate the comparative results for a membrane with wall thickness of 0.9 mm.

[3] = in vitro release rate of gestodene from implant
Description: The release rate of the therapeutically active substance from the device was measured in vitro as follows: The devices (implant, intravaginal ring, intracervical or intrauterine system) were attached into a stainless steel holder in vertical position and the holders with the devices were placed into glass bottles containing 75 ml of a dissolution medium, a 1 wt-% hydroxypropyl cyclodextrin solution. The glass bottles were shaked in shaking waterbath 100 rpm at 37° C. The dissolution medium was withdrawn and replaced by a fresh dissolution medium at predetermined time intervals, and the amount of the released substance was analysed by using standard HPLC methods. The concentration of the dissolution medium and the moment of change (withdrawal and replacement) of medium were selected, so that sink-conditions were maintained during the test. The present invention was also tested with an implant containing gestodene, a synthetic progestogene hormone. The implant core and membrane rods were made with extrusion and the implant composition was made by swelling the membrane in propanol. The outer diameter of the implant core was 2.5-3.0 mm and the length 40-48 mm. The content of the therapeutically active agent in the core was 65 wt-%. The membrane thickness was 0.25 mm, inner diameter 2.35-2.65 mm, outer diameter was 3.0-3.25 mm and length 10 mm longer than the elastomer core. The HPBCD content of the implant membrane was 4 wt-%. The membrane was made of PEO-b-PDMS (15 wt-%) and PDMS (85 wt-%). The results are shown in FIG. 2 as the release rate of the therapeutically active agent (μg/d, shown in y-axis) versus time (days, shown in x-axis), wherein the squares represent the results for the Reference 1, the losanges represent the results for an implant having a HPBCD-containing membrane and the triangles illustrate the results for Reference 2. Reference 1 comprises a core having an outer diameter of 2.5 mm and a length of 40 mm, and a membrane, the thickness of which is 0.25 mm. The implant having a membrane containing 1 wt-% HPBCD has a core with an outer diameter of 3.03 mm and a length of 44 mm, and the membrane wall of 0.25 mm. Reference 2 comprises a core having an outer diameter of 2.8 mm, a length of 48 mm and the membrane with a wall of 0.25 mm.

SMILES: CC(=O)c1ccc(C2C[C@@]3(C)[C@@H](CCC3(O)C(F)(F)C(F)(F)F)[C@@H]3CCC4=CC(=O)CCC4=C23)cc1 (stereo partly drawn) [FAP, 11-(4-Acetylphenyl)-17-hydroxy-17-(1,1,2,2,2-pentafluoroethyl)estra-4,9-dien-3-one]
- burst effect ([1]; amount of cyclodextrin in membrane 1 wt-%): still some burst effect remaining
- level of the release rate ([1]; amount of cyclodextrin in the membrane 4 wt-% (vs 1 wt-%)): higher
- release rate profile compared to reference sample ([1]; both cyclodextrin modified samples (1 and 4 wt-%)): higher
- initial burst ([1]; both cyclodextrin-modified membranes (1 and 4 wt-% HPBCD) vs reference sample, FIG. 3): decreased
- shape of the curve of the release rate after two days ([1]; reference and modified samples compared): similar

SMILES: C#C[C@]1(O)CC[C@H]2[C@@H]3CCC4=Cc5oncc5C[C@]4(C)[C@H]3CC[C@@]21C [danazol, (17alpha)-pregna-2,4-dien-20-yn[2,3-d]isoxazol-17-ol]
- release rate when HPBCD is added into the membrane ([2]; HPBCD modified IVR vs reference samples): seems to be higher
- release rate trend over time ([2]; HPBCD modified IVR, first two weeks, up to the zenith point): slightly increasing trend
- release rate compared to ordinary ring with 0.9 mm wall ([2]; IVR with 0.17 w-% HPBCD content and 0.7 mm membrane wall, two and half week release): stays equal
- initial burst without the modification relative to that found for modified samples ([2]; IVR without HPBCD (membrane wall 0.3 and 0.9 mm) vs HPBCD modified samples, FIG. 1): five to ten times
- initial burst without the modification relative to the release rate in two weeks dissolution ([2]; IVR without HPBCD (membrane wall 0.3 and 0.9 mm), FIG. 1): three to five times
- initial burst effect ([2]; IVR, all HPBCD modified samples (0.17, 1.7, 7.7 wt-% HPBCD in membrane; wall 0.7, 0.35, 0.25 mm), 1 wt-% hydroxypropyl cyclodextrin medium, 37° C, FIG. 1): negative initial burst effect

SMILES: C#C[C@]1(O)C=C[C@H]2[C@@H]3CCC4=CC(=O)CC[C@@H]4[C@H]3CC[C@@]21CC [gestodene]
- total decrease of release in 14 days ([3]; both reference samples (implants without HPBCD in membrane), FIG. 2): 30%
- total decrease of the gestodene release from the second to the third week ([3]; implant with cyclodextrin (HPBCD) modified membrane): 0.5%
- maximum decrease of release in two weeks ([3]; implant with cyclodextrin (HPBCD) modified membrane, FIG. 2): ca. 6%
- decrease of the gestodene release from the second to the third week ([3]; reference samples (implants without HPBCD in membrane)): 8.4% and 11%
